Measured values reported in patent US20160199361A1, “Method of Inducing An Anti-Retroviral Immune Response By Counter-Acting Retro-Virus Induced Anti-Apoptosis” (RUTGERS, THE STATE UNIVERSITY OF NEW JERSEY, priority 2013, published 2016).
Entries after “also recorded” stand apart in the source; their conditions may differ.

What was measured:
[1] = test system: PBMCs acutely infected with HIV-1; experiment: Apoptotic DNA fragmentation (TUNEL) in non-replenished short-term PBMC cultures infected with HIV-1 isolate; assay type: cell-based, human
Description: (§1) Reagents and cells. Drug-grade deferiprone was kindly provided by Apotex (Toronto, Canada). PBMCs were isolated from the blood of healthy donors, per an IRB-approved protocol, and stimulated overnight with phytohemagglutinin (PHA) and human IL-2. […] Cultures were incubated at 37° C., 5% CO2, and 95% humidity. DNA fragmentation assay. Apoptotic DNA fragmentation was quantified flow-cytometrically, using a TUNEL (terminal deoxynucleotide transferase dUTP nick end-labeling) assay (APO-BRDU™; Phoenix Flow Systems; San Diego, Calif.).

[2] = test system: uninfected PBMCs; experiment: Apoptotic DNA fragmentation (TUNEL) in non-replenished short-term uninfected PBMC cultures; assay type: cell-based, human; details: 30 μM, 144 hours
Description: as §1

[3] = test system: clinical isolates of HIV-1; experiment: HIV-1 p24 and HIV-1 RNA in isolate-infected, long-term replenished primary cell (PBMC) cultures; assay type: cell-based; details: for number of infective virions produced: use without interruption for up to three weeks, unchanged at least three months after discontinuation; for p24 relative to controls: within two weeks, PBMCs stably infected with clinical isolates
Description: Reagents and cells. Drug-grade deferiprone was kindly provided by Apotex (Toronto, Canada). PBMCs were isolated from the blood of healthy donors, per an IRB-approved protocol, and stimulated overnight with phytohemagglutinin (PHA) and human IL-2. Stimulated cells were pelleted and resuspended for culture at a final concentration of 0.5×10^6 cells/ml in PHA-free RPMI 1640 medium containing 10% fetal calf serum (v/v), 100 units/ml penicillin G, 100 μg/ml streptomycin, 2 mM […], and 3.5 ng/ml human IL-2 (Medium B). Cultures were incubated at 37° C., 5% CO2, and 95% humidity.
To obtain clinical isolates of HIV-1, donors were consented to provide blood samples per an IRB-approved protocol. For infection, 5×10^6 uninfected stimulated PBMCs were co-cultured with 10×10^6 PBMCs from one of the HIV-infected donors in Medium B. On day 3, half of the supernatant was removed and replenished with an equal volume of fresh Medium B. On day 7, the medium was likewise replenished and 7.5×10^6 stimulated uninfected PBMCs were added. On days 10, 17, and 24, half of the supernatant was replenished. On days 14, 21, and 28, stimulated uninfected PBMCs were added. Cells were harvested when p24 reached 250 pg/ml, cryopreserved in freezing medium (90% fetal calf serum, 10% dimethyl sulfoxide), and stored in liquid nitrogen as infected PBMC stock. Cell-free supernatants were stored at −80° C.
(§2) To establish persistent infection of cultured PBMCs, uninfected cells (5×10^6 cells) and infected PBMC stock (0.5×10^6 cells) were co-incubated in a 25 ml culture flask at a final concentration of 0.22×10^6 cells/ml. Cultures were allowed to establish productive infection, defined by medium p24 at or above 250 pg/ml, and deferiprone was added. Cultures were replenished with Medium B and freshly isolated uninfected PBMCs on alternate days. For replacement of Medium B, half of the supernatant was gently exchanged without disturbing the cells, and the drug concentration was adjusted appropriately. For replacement with freshly isolated, stimulated and uninfected PBMCs, half of the cells and supernatant were removed and replaced with 2.5×10^6 cells in the proper volume of Medium B, with adjustment of the drug concentration. Cell-free supernatants were saved for p24 and viral RNA measurements.
(§3) Detection of p24, viral RNA, and viral DNA. p24 core antigen in the supernatant was quantified by ELISA (Retrotek HIV-1 p24™; ZeptoMetrix Corp.; Buffalo, N.Y.). HIV-1 RNA copy number in the supernatant of PBMC cultures and in plasma of patients enrolled in the exploratory deferiprone trial was determined with a PCR-based and FDA-approved assay (Amplicor HIV-1 Monitor™; Roche Diagnostics Corp.; Indianapolis, Ind.). For clinical samples, the assay was used per the Standard Specimen Processing Procedure (sensitivity limit 400 copies/ml); for cell culture samples, the assay was used in both the Standard Specimen Processing and the UltraSensitive Specimen Processing Procedure (sensitivity limit 50 copies/ml). The Roche Amplicor HIV-1 DNA Test (Roche Diagnostics Corp.; Indianapolis, Ind.) was used for qualitative detection of HIV-1 DNA.

[4] = test system: HIV-1 DNA; experiment: Qualitative detection of HIV-1 DNA in infected replenished PBMC cultures; assay type: cell-based; details: 200 μM, 10 days of post-cessation monitoring
Description: as §2
Detection of p24, viral RNA, and viral DNA. p24 core antigen in the supernatant was quantified by ELISA (Retrotek HIV-1 p24™; ZeptoMetrix Corp.; Buffalo, N.Y.). HIV-1 RNA copy number in the supernatant of PBMC cultures and in plasma of patients enrolled in the exploratory deferiprone trial was determined with a PCR-based and FDA-approved assay (Amplicor HIV-1 Monitor™; Roche Diagnostics Corp.; Indianapolis, Ind.). […]

[5] = test system: HIV-1; experiment: Exploratory pilot trial: plasma HIV-1 RNA in HIV-1-infected treatment-naive persons; assay type: in vivo, human
Description: as §3
Two oral dose levels of deferiprone were tested, 33 mg/kg (33 mg/kg QD on days 1 and 7, and 33 mg/kg TID on days 2-6 [seven asymptomatic HIV-infected antiretroviral-naive persons]) and 50 mg/kg (50 mg/kg QD on days 1 and 7, and 50 mg/kg TID on days 2-6 [six healthy volunteers and seven asymptomatic HIV-infected antiretroviral-naive persons, four of whom completed the treatment period]).
Each cohort was unblinded only at study completion. […] Secondary parameters included pharmacokinetic variables (e.g. peak serum concentration) in serum, drawn after initial drug ingestion at fixed hours (0, 0.5, 1, 1.5, 2, 3, 4, 6, 9, 12). […] Viral load was measured as described above.
For the cell culture experiments with deferiprone and the exploratory clinical trial, descriptive statistics were generated using Microsoft Excel 2011. In the exploratory trial, outcome analysis was performed to assess the intercohort and intraindividual virological response to deferiprone, using Student's t-test for log10-based analysis of the time-specified differentials (Δ log) between the cohort identified medians (±standard error of the mean [SEM]) generated from the multiple measurements per subject on treatment minus before treatment. (‘response’ in the first stage of the protocol) and off treatment minus before treatment (‘rebound’ in the second stage of the treatment). P<0.05 was used as criterion for statistical significance. […] To assess the in vivo antiretroviral activity of deferiprone in a hypothesis-independent manner, the Δ log of the HIV-1 RNA levels achieved in the first and the second stage of the protocol was analyzed after post-treatment segregation into ‘responders’ and ‘non-responders’ per the discontinuation trial design (DTD).

[6] = test system: infected T-cell lines; experiment: Suppression of HIV-1 generation and selective induction of apoptosis in infected T-cell lines; assay type: cell-based
[7] = test system: PBMCs; experiment: Cell viability and apoptotic volume decrease by trypan blue image analysis in replenished PBMC cultures; assay type: cell-based, human; details: 200 μM
Description: Quantitation of cell number, viability, diameter, and apoptotic volume decrease. These parameters were measured in PBMC cultures by computerized image analysis of trypan blue exclusion (VI-CELL™; Beckman Coulter; Fullerton, Calif.).

[8] = test system: HIV-1; details: zidovudine monotherapy, reference range; cited from earlier work

SMILES: Cc1cc(C2CCCCC2)n(O)c(=O)c1 [ciclopirox]
- cells with fragmented DNA (apoptotic), infected treated cultures ([1]; 30 μM, 144 hours after inoculation): 71.8±8.8%
- cells with fragmented DNA (apoptotic), uninfected treated cultures [2]: 24.1±3.2%
- number of infective virions produced [3]: undetectable levels

SMILES: Cc1c(O)c(=O)ccn1C [deferiprone, 3-hydroxy-1,2-dimethylpyridin-4(1H)-one]
- HIV-1 DNA in post-treatment cultures [4]: either negative or at the lower limit of detectability
- induced apoptosis in infected versus uninfected PBMCs ([1]; 200 μM, non-replenished short-term cultures): significantly (P≦0.009) exceeded that in uninfected PBMCs
- Δ log10 HIV-1 RNA, acute decline coinciding with peak concentrations ≧150 μM ([5]; 50 mg/kg po TID group): −0.44±0.1 log10
- Δ log10 HIV-1 RNA D7 vs. D1, subjects with acute viral load decline ([5]; Group A, the 6 of 7 with decline): −0.42±0.05 log10
- subjects with acute viral load decline ([5]; Group A, ≧150 μM in serum): 6 of 7
- Δ log10 HIV-1 RNA D7 vs. D1 ([5]; Group A, ≧150 μM in serum, 33 or 50 mg/kg po TID, N=7): −0.40±0.1 log10
- Δ log10 HIV-1 RNA D7 vs. D1 ([5]; Group B, did not achieve ≧150 μM in serum, deferiprone N=4): +0.17±0.07 log10
- difference responders vs non-responders, Δ log10 D7 vs. D1 ([5]; end of first stage, 6 responders, 5 non-responders): 0.64 log10
- difference responders vs non-responders, Δ log D53 vs. D1 ([5]; end of second stage, 5 responders, 5 non-responders, off drug): 0.54 log
- duration of persistent off-drug suppression as multiple of drug half-life ([5]; off-drug, human): ≥ 200 times the half-life
- antiretrovirally effective in vivo threshold (serum concentration) ([5]; serum, 11 treated subjects, P=0.0152 Fisher's Exact test): ≥ 150 µM
- acute responders that did not reacquire viral load baseline ([5]; seven weeks post-treatment after one-week pulse): 80%
- rate of viral RNA rebound after cessation of drug ([3]; 100 μM, 35 days of treatment): +0.24 log10/ml/day
- decrease of viral copy number versus set-point of controls ([3]; 100 μM, infected replenished cultures, weeks of treatment): decreased by just one log
- p24 relative to controls ([3]; 100 μM): ≤ 10 % of controls
- viral RNA nadir ([3]; 200 μM): 10^3 copies/ml
- reduction of viral RNA copies versus infected untreated controls ([3]; 200 μM, 16-day treated cultures): reduced by three orders of magnitude
- re-emergence of productive infection off-treatment ([3]; 200 μM, after 90 days off-treatment): no re-emergence of productive infection
- decline of viral copy number ([3]; 200 μM, continuous treatment): falling by three logs
- time to reach nadir of <10^3 copies/ml ([3]; 200 μM, depending on isolate - primary cell combination): 2-4 weeks
- HIV-1 RNA rebound after drug discontinuation ([3]; 200 μM, off drug, replenished cultures): viral RNA rebound is absent off drug; also recorded: did not rebound
- viral RNA after continued observed decline ([3]; 200 μM, post-treatment): < 10^2 copies/ml
- p24 relative to controls ([3]; 200 μM): ≤ 10 % of controls
- on-drug rate of viral RNA decline ([3]; 200 μM, appears to continue up to five days post cessation): −0.04 log10/ml/day
- time for post-treatment rebound to reacquire set-point ([3]; after cessation of 100 μM): ≤ 72 h
- p24 expression and viral copy number ([3]; below 100 μM): marginally affected
- viral breakthrough ([3]; month-long monotherapy): did not elicit viral breakthrough
- number of infective virions produced [3]: undetectable levels
- concentration required for effective suppression of HIV-1 generation and selective induction of apoptosis [6]: at least 150 μM
- apoptotic volume decrease [7]: not detectable
- viability (trypan blue) [7]: ≥ 95%

SMILES: Cc1cn([C@H]2C[C@H](N=[N+]=[N-])[C@@H](CO)O2)c(=O)[nH]c1=O [zidovudine]
- viral load decline on monotherapy [8]: −0.3 log10
